This passage reports IC50 results from patent US20210355121A1, “FUSED TRICYCLIC KRAS INHIBITORS” (Incyte Corporation, priority 2020, published 2021).

The structures appear in SMILES notation. Some results are limits rather than exact numbers.

For test [1], the target named is KRAS G12C (Homo sapiens, UniProt P01116, G12C). The test is described as follows: KRAS G12C GDP-GTP exchange assay (bodipy-GDP for GppNHp, with SOS1). Conditions: 2.5 nM bodipy-loaded KRAS G12C, 2 hours pre-incubation with inhibitor, 2 hours after GppNHp-SOS1; read-out: G12C_exchange (KRAS_G12C exchange assay IC50). The format is biochemical. How it is done:
The inhibitor potency of the exemplified compounds was determined in a fluorescence based guanine nucleotide exchange assay, which measures the exchange of bodipy-GDP (fluorescently labeled GDP) for GppNHp (Non-hydrolyzable GTP analog) to generate the active state of KRAS in the presence of SOS1 (guanine nucleotide exchange factor). Inhibitors were serially diluted in DMSO and a volume of 0.1 μL was transferred to the wells of a black low volume 384-well plate. 5 μL/well volume of bodipy-loaded KRAS G12C diluted to 5 nM in assay buffer (25 mM Hepes pH 7.5, 50 mM NaCl, 10 mM MgCl2 and 0.01% Brij-35) was added to the plate and pre-incubated with inhibitor for 2 hours at ambient temperature. Appropriate controls (enzyme with no inhibitor or with a G12C inhibitor (AMG-510)) were included on the plate. The exchange was initiated by the addition of a 5 μL/well volume containing 1 mM GppNHp and 300 nM SOS1 in assay buffer. The 10 μL/well reaction concentration of the bodipy-loaded KRAS G12C, GppNHp, and SOS1 were 2.5 nM, 500 uM, and 150 nM, respectively. The reaction plates were incubated at ambient temperature for 2 hours, a time estimated for complete GDP-GTP exchange in the absence of inhibitor. For the KRAS G12D and G12V mutants, similar guanine nucleotide exchange assays were used with 2.5 nM as final concentration for the bodipy loaded KRAS proteins and with 4 hours and 3 hours incubation after adding GppNHp-SOS1 mixture for G12D and G12V respectively. A cyclic peptide described to selectively bind G12D mutant (Sakamoto et al., BBRC 484.3 (2017), 605-611) or internal compounds with confirmed binding were used as positive controls in the assay plates. Fluorescence intensities were measured on a PheraStar plate reader instrument (BMG Labtech) with excitation at 485 nm and emission at 520 nm.
Either GraphPad prism or XLfit was used to analyze the data. The IC50 values were derived by fitting the data to a four parameter logistic equation producing a sigmoidal dose-response curve with a variable Hill coefficient. Prism equation: Y=Bottom+(Top−Bottom)/(1+10^((Log IC50−X)*Hill slope)); XLfit equation: Y=(A+((B−A)/(1+((X/C)^D)))) where X is the logarithm of inhibitor concentration and Y is the response.

Test [2] relates to MIA PaCa-2 (KRAS G12C) cells. Nature of the test: KRAS_G12C cellular pERK HTRF assay. Conditions: Homo sapiens, MIA PaCa-2; phospho-ERK1/2 HTRF, 4 hours incubation; read-out: G12C_pERK (KRAS_G12C pERK assay IC50). It is filed as cell-based, human. How it is done:
MIA PaCa-2 (KRAS G12C; ATCC® CRL-1420), A427 (KRAS G12D; ATCC® HTB53), HPAF-II (KRAS G12D; ATCC® CRL-1997) and NCI-H838 (KRAS WT; ATCC® CRL-5844) cells are purchased from ATCC and maintained in RPMI 1640 media supplemented with 10% FBS (Gibco/Life Technologies). The cells are plated at 5000 cells per well (8 uL) into Greiner 384-well low volume, flat-bottom, tissue culture treated white plates and incubated overnight at 37° C., 5% CO2. The next morning, test compound stock solutions are diluted in media at 3× the final concentration, and 4 uL are added to the cells. The plate is mixed by gentle rotation for 30 seconds (250 rpm) at room temperature. The cells are incubated with the KRAS G12C and G12D compounds for 4 hours or 2 hours respectively at 37° C., 5% CO2.
4 uL of 4× lysis buffer with blocking reagent (1:25) (Cisbio) are added to each well and plates are rotated gently (300 rpm) for 30 minutes at room temperature. 4 uL per well of Cisbio anti Phospho-ERK 1/2 d2 is mixed with anti Phospho-ERK 1/2 Cryptate (1:1) are added to each well, mixed by rotation and incubated overnight in the dark at room temperature. Plates are read on the Pherastar plate reader at 665 nm and 620 nm wavelengths. IC50 determination is performed by fitting the curve of inhibitor percent inhibition versus the log of the inhibitor concentration using the GraphPad Prism 7 software.
Background: TR-FRET usually uses a lanthanide donor and a delayed reading to cut background.

KRAS G12C, sequence (P01116 1-188 isoform P01116-2 G12C): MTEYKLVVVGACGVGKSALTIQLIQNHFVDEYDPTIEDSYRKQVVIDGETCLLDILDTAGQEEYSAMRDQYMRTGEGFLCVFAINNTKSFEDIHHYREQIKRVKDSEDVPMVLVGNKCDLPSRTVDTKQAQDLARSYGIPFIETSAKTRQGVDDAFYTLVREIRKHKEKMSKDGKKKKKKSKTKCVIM

`Cc1cc2c(nc(N3CC(C)(N(C)C)C3)c3cnn([C@H]4CCN(C(=O)/C=C/CF)[C@H](CC#N)C4)c32)c(F)c1-c1cccc2cccc(C#N)c12` (single isomer, unassigned) [Example 58a]: the IC50 in test [1] and in test [2] was at most 100 nM in each case.
For the compound `C=C(F)C(=O)N1CC[C@H](n2ncc3c(N4CC(C)(N(C)C)C4)nc4c(F)c(-c5cccc6cccc(C#N)c56)c(C)cc4c32)C[C@H]1CC#N` (single isomer, unassigned) [Example 59a], the half-maximal inhibitory concentration (IC50) in test [1] and in test [2] was at most 100 nM each time.
`CC#CC(=O)N1CC[C@H](n2ncc3c(N4CC(C)(N(C)C)C4)nc4c(F)c(-c5cccc6cccc(C#N)c56)c(C)cc4c32)C[C@H]1CC#N` (single isomer, unassigned) [Example 60a]: the IC50 in test [1] and in test [2] was at most 100 nM in each case.
For the compound `COC/C=C/C(=O)N1CC[C@H](n2ncc3c(N4CC(C)(N(C)C)C4)nc4c(F)c(-c5cccc6cccc(C#N)c56)c(C)cc4c32)C[C@H]1CC#N` (single isomer, unassigned) [Example 61a], the IC50 in test [1] and in test [2] was at most 100 nM each time.
Consider `Cc1cc2c(nc(N3CC(C)(N(C)C)C3)c3cnn([C@H]4CCN(C(=O)/C=C/CN(C)C)[C@H](CC#N)C4)c32)c(F)c1-c1cccc2cccc(C#N)c12` (single isomer, unassigned) [Example 62a], for which the IC50 in test [1] and in test [2] was at most 100 nM throughout.
With `Cc1cc2[nH]ncc2c(-c2c(C)cc3c(nc(N4CC(C)(N(C)C)C4)c4cnn([C@H]5CCN(C(=O)/C=C/CF)[C@H](CC#N)C5)c43)c2F)c1C` (single isomer, unassigned) [Example 64a], the IC50 in test [1] and in test [2] was at most 100 nM each time.
In the case of `COC/C=C/C(=O)N1CC[C@H](n2ncc3c(N4CC(C)(N(C)C)C4)nc4c(F)c(-c5c(C)c(C)cc6[nH]ncc56)c(C)cc4c32)C[C@H]1CC#N` (single isomer, unassigned) [Example 65a], the IC50 in test [1] and in test [2] was at most 100 nM each time.
Consider `Cc1cc2[nH]ncc2c(-c2c(C)cc3c(nc(N4CC(C)(N(C)C)C4)c4cnn([C@H]5CCN(C(=O)/C=C/CN(C)C)[C@H](CC#N)C5)c43)c2F)c1C` (single isomer, unassigned) [Example 66a], for which the IC50 in test [1] and in test [2] was at most 100 nM in each case.
Consider `Cc1cc2[nH]ncc2c(-c2c(C)cc3c(nc(O[C@@H](C)[C@@H]4CCCN4C)c4cnn([C@H]5CCN(C(=O)/C=C/CF)[C@H](CC#N)C5)c43)c2F)c1C` (single isomer, unassigned) [Example 67b], for which the IC50 in test [1] and in test [2] was at most 100 nM in each case.
As for `C=C(F)C(=O)N1CC[C@H](n2ncc3c(O[C@@H](C)[C@@H]4CCCN4C)nc4c(F)c(-c5c(C)c(C)cc6[nH]ncc56)c(C)cc4c32)C[C@H]1CC#N` (single isomer, unassigned) [Example 68b], the 50% inhibitory concentration (IC50) in test [1] and in test [2] was at most 100 nM each time.
As to `CC#CC(=O)N1CC[C@H](n2ncc3c(O[C@@H](C)[C@@H]4CCCN4C)nc4c(F)c(-c5c(C)c(C)cc6[nH]ncc56)c(C)cc4c32)C[C@H]1CC#N` (single isomer, unassigned) [Example 69b], the IC50 in test [1] and in test [2] was at most 100 nM in each case.
In the case of `COC/C=C/C(=O)N1CC[C@H](n2ncc3c(O[C@@H](C)[C@@H]4CCCN4C)nc4c(F)c(-c5c(C)c(C)cc6[nH]ncc56)c(C)cc4c32)C[C@H]1CC#N` (single isomer, unassigned) [Example 70b], the IC50 in test [1] and in test [2] was at most 100 nM in each case.
Turning to `Cc1cc2[nH]ncc2c(-c2c(C)cc3c(nc(O[C@@H](C)[C@@H]4CCCN4C)c4cnn([C@H]5CCN(C(=O)/C=C/CN(C)C)[C@H](CC#N)C5)c43)c2F)c1C` (single isomer, unassigned) [Example 71b], the IC50 in test [1] and in test [2] was at most 100 nM each time.
Consider `Cc1cc2[nH]ncc2c(-c2c(Cl)cc3c(nc(N4CC(N(C)C)C4)c4cnn([C@H]5CCN(C(=O)/C=C/CF)[C@H](CC#N)C5)c43)c2F)c1C` (single isomer, unassigned) [Example 72a], for which the IC50 in test [1] and in test [2] was at most 100 nM in each case.
As to `C=C(F)C(=O)N1CC[C@H](n2ncc3c(N4CC(N(C)C)C4)nc4c(F)c(-c5c(C)c(C)cc6[nH]ncc56)c(Cl)cc4c32)C[C@H]1CC#N` (single isomer, unassigned) [Example 73a], the IC50 in test [1] and in test [2] was at most 100 nM in each case.
`CC#CC(=O)N1CC[C@H](n2ncc3c(N4CC(N(C)C)C4)nc4c(F)c(-c5c(C)c(C)cc6[nH]ncc56)c(Cl)cc4c32)C[C@H]1CC#N` (single isomer, unassigned) [Example 74a]: the IC50 in test [1] and in test [2] was at most 100 nM in each case.
As to `COC/C=C/C(=O)N1CC[C@H](n2ncc3c(N4CC(N(C)C)C4)nc4c(F)c(-c5c(C)c(C)cc6[nH]ncc56)c(Cl)cc4c32)C[C@H]1CC#N` (single isomer, unassigned) [Example 75a], the IC50 in test [1] and in test [2] was at most 100 nM each time.
As for `Cc1cc2[nH]ncc2c(-c2c(Cl)cc3c(nc(N4CC(N(C)C)C4)c4cnn([C@H]5CCN(C(=O)/C=C/CN(C)C)[C@H](CC#N)C5)c43)c2F)c1C` (single isomer, unassigned) [Example 76a], the IC50 in test [1] and in test [2] was at most 100 nM each time.
For the compound `C=C(F)C(=O)N1CC[C@H](n2ncc3c(OCC4CCCN4C)nc4c(F)c(-c5c(C)c(C)cc6[nH]ncc56)c(Cl)cc4c32)C[C@H]1CC#N` (single isomer, unassigned) [Example 77a], the IC50 in test [1] and in test [2] was at most 100 nM throughout.
As to `CC#CC(=O)N1CC[C@H](n2ncc3c(OC[C@@H]4CCCN4C)nc4c(F)c(-c5c(C)c(C)cc6[nH]ncc56)c(Cl)cc4c32)C[C@H]1CC#N` (single isomer, unassigned) [Example 78a], the IC50 in test [1] and in test [2] was at most 100 nM throughout.
On to `COC/C=C/C(=O)N1CC[C@H](n2ncc3c(OC[C@@H]4CCCN4C)nc4c(F)c(-c5c(C)c(C)cc6[nH]ncc56)c(Cl)cc4c32)C[C@H]1CC#N` (single isomer, unassigned) [Example 79a], for which the IC50 in test [1] and in test [2] was at most 100 nM in each case.
As for `Cc1cc2[nH]ncc2c(-c2c(Cl)cc3c(nc(OC[C@@H]4CCCN4C)c4cnn([C@H]5CCN(C(=O)/C=C/CN(C)C)[C@H](CC#N)C5)c43)c2F)c1C` (single isomer, unassigned) [Example 80a], the IC50 in test [1] and in test [2] was at most 100 nM throughout.
As for `C=C(F)C(=O)N1CC[C@H](n2ncc3c(N4CC(C)(N(C)C)C4)nc4c(F)c(-c5c(C)c(C)cc6[nH]ncc56)c(Cl)cc4c32)C[C@H]1CC#N` (single isomer, unassigned) [Example 81a], the IC50 in test [1] and in test [2] was at most 100 nM throughout.
In the case of `CC#CC(=O)N1CC[C@H](n2ncc3c(N4CC(C)(N(C)C)C4)nc4c(F)c(-c5c(C)c(C)cc6[nH]ncc56)c(Cl)cc4c32)C[C@H]1CC#N` (single isomer, unassigned) [Example 82a], the IC50 in test [1] and in test [2] was at most 100 nM throughout.
